# Results reported in patent US11185514B2, “Aqueous solution comprising a polyphenol” (OPTERION Health AG, priority 2015, dated 2021).
# Tests used:
# [1] = Solubility after one hour stirring at RT as a function of glucose or icodextrin concentration in salt solution at pH 3 or pH 7 (Example 1); format: physicochemical; conditions: 0% glucose or icodextrin
# Experimental: Concentrations of stilbenoid in the present invention are measured after 1 hour stirring at room temperature, which is preferably 20-23° C., more preferably 22°. So, stilbenoid concentrations correspond to measured solubility after 1 hour stirring at room temperature. Concentration is measured in aqueous solution, comprising the stilbenoid and the at least one saccharide. If not specifically indicated, or if not specifically indicated otherwise, the time of stirring is one hour. In some cases, other stirring times are indicated, such as 12 hours. […] With increasing concentrations of saccharides, less variations were observed. This is highly beneficial for pharmacological formulations. For analysis R and P and their impurities were separated by a C-18 column with a gradient system and UV-detection at 306 nm. Solubility and stability of Resveratrol and […] after one hour stirring at RT, as a function of glucose or icodextrin concentration in a solution, containing 5.4 g/L NaCl, 4.5 g/L NaLactate, 0.275 g/L CaCl2, and 0.051 g/L MgCl2, buffered at pH 3 or pH 7. Solubility was measured after one hour stirring at room temperature, in presence of excess solute, followed by filtering.
# [2] = Stability after one hour stirring at RT as a function of glucose or icodextrin concentration in salt solution at pH 3 or pH 7 (Example 1); format: physicochemical; conditions: pH of 3 to 3.5
# Experimental: For analysis R and P and their impurities were separated by a C-18 column with a gradient system and UV-detection at 306 nm. Solubility and stability of Resveratrol and […] after one hour stirring at RT, as a function of glucose or icodextrin concentration in a solution, containing 5.4 g/L NaCl, 4.5 g/L NaLactate, 0.275 g/L CaCl2, and 0.051 g/L MgCl2, buffered at pH 3 or pH 7. Solubility was measured after one hour stirring at room temperature, in presence of excess solute, followed by filtering.
# [3] = Solubility in commercial peritoneal dialysis solutions (Medium B, E, F), 5 minutes to 12 hours stirring (Example 2); format: physicochemical; conditions: for P in Medium B found: Medium B (106.5 g/L anhydrous glucose, pH 3.5); for P in Medium B found / P in Medium E found / P in Medium F found: room temperature; for P in Medium E found: Medium E (75 g/L Icodextrin, pH 3); for P in Medium F found: Medium F (30 g/L anhydrous glucose, pH 3)
# Experimental: (§1) Solubility studies were carried out commercially available peritoneal dialysis solutions Fresenius Safestay® 1.5% glucose, Baxter Physioneal® 3.86% glucose and Baxter Extraneal® (7.5% icodextrin), precisely in acidic glucose solutions, such as applied in two compartiment peritoneal dialysis applications Stay Safe® and Physioneal®, as well as in Extraneal® Solution that had previously been acidified to pH3. Medium B (117.14 g/L glucose monohydrate (equivalent to 106.5 g/L anhydrous glucose), 0.507 g/L Calcium chloride dihydrate, 0.140 g/L Magnesium chloride hexahydrate, measured pH 3.5), Medium E (75 g/L Icodextrin, 5.35 g/L Sodium Chloride, 4.48 g/L Sodium Lactate, 257 mg/L Calcium Chloride USP, 50.8 mg/L Magnesium Chloride USP, adjusted to pH 3 in our lab), and Medium F (30 g/L anhydrous glucose, 11.279 g/L Sodium chloride, 0.3675 g/L Calcium chloride dihydrate, 0.2033 g/L Magnesium chloride hexahydrate, measured pH 3).
# Solubility was measured after 5 minutes to 12 hours stirring at room temperature, in presence of excess solute, followed by filtering.
# Solubility was measured after one hour or 12 hours stirring at room temperature, in presence of excess solute, followed by filtering.
# [4] = Stability of Resveratrol in commercial dialysis solutions during autoclavation (Example 4); format: physicochemical
# Experimental: For analysis R and P and their impurities were separated by a C-18 column with a gradient system and UV-detection at 306 nm.
# as §1
# Stability of Resveratrol in commercial dialysis solutions during autoclavation. Experiment was carried out in previous defined media B, E and F. 25 mg of resveratrol were sonicated in each medium and 0.45 μm filtered to give clear solutions. Obtained solutions were autoclaved for 30 min at 121° C.
# [5] = Solubility after one hour stirring at RT as a function of saccharide concentration in H2O (Examples 5-9); format: physicochemical; conditions: 24% N-acetylglucosamin in H2O, 1 hour stirring RT
# Experimental: (§2) Solubility measurements after 1 hour stirring at RT generated some variability in-between measurement series, which might be due to low temperature variations, back-ground measurements and experimental imprecisions. […] The here calculated factors of increase of solubility are therefore to be considered as conservative.
# Solubility of Resveratrol after one hour stirring at RT, as a function of the concentration of Maltose, Maltotriose, Isomaltotriose, and Maltotetraose in H2O. Solubility was measured after one hour stirring at room temperature, in presence of excess solute, followed by filtering. […] Concentration of Maltose and maltotriose of 7.5% increased solubility of the stilbenoid resveratrol by a factor higher than 6 and 3 respectively.
# Solubility of Resveratrol after one hour stirring at RT, as a function of the concentration of Maltodextrin DE 16-19 (DE═dextrose equivalents), Maltodextrin DE 4-7 or Icodextrin in H2O. Solubility was measured after one hour stirring at room temperature, in presence of excess solute, followed by filtering.
# Solubility of Resveratrol after one hour stirring at RT, as a function of the concentration of Dextran 2.5-4 kD, Dextran 10 kD, Glycogen 100 kD, and Pullulan 100-200 kD, in H2O. Solubility was measured after one hour stirring at room temperature, in presence of excess solute, followed by filtering. […]
# [6] = Solubility of resveratrol in water / aqueous solution after stirring at room temperature (general statements); format: physicochemical
# Experimental: Concentrations of stilbenoid in the present invention are measured after 1 hour stirring at room temperature, which is preferably 20-23° C., more preferably 22°. So, stilbenoid concentrations correspond to measured solubility after 1 hour stirring at room temperature. Concentration is measured in aqueous solution, comprising the stilbenoid and the at least one saccharide. If not specifically indicated, or if not specifically indicated otherwise, the time of stirring is one hour. In some cases, other stirring times are indicated, such as 12 hours. […] With increasing concentrations of saccharides, less variations were observed. This is highly beneficial for pharmacological formulations.
# as §2
# [7] = cited from earlier work
SMILES,effect of pH3 versus pH7 on solubility [1],stabilization by pH [2],P in Medium B found ([3]; stirring time 60 min) [mg/L],P in Medium B found ([3]; stirring time 12 h) [mg/L],P in Medium E found ([3]; stirring time 60 min) [mg/L],P in Medium E found ([3]; stirring time 12 h) [mg/L],P in Medium F found ([3]; stirring time 60 min) [mg/L],P in Medium F found ([3]; stirring time 12 h) [mg/L],"stability of solubilized piceid over stirring time ([3]; commercial dialysis solutions, between 1 and 12 hours stirring)","solubility relative to referred absolute solubility (approximately 30 mg/L) ([3]; 7.5% Icodextrin (Medium E), 12 hours stirring)","stability on heat sterilization ([4]; pH 3 adjusted Extraneal solution, heat sterilization)","stability during standard heat-sterilization ([4]; saccharide containing dialysis solutions at pH3, specifically in presence of 7.5% Icodextrin)",increase of concentration [5] [times],"solubility at 1 h ([6]; 22 °C, thermodynamic from solid, after 1 hour stirring, distilled water, variation between measurements) [µg/mL]",concentration of resveratrol after 12 hours ([6]; 12 hours stirring),referred absolute solubility of Resveratrol in aqueous solution [7]
"OC[C@H]1O[C@@H](Oc2cc(O)cc(/C=C/c3ccc(O)cc3)c2)[C@H](O)[C@@H](O)[C@@H]1O [Piceid, resveratrol-3-O-β-mono-D-glucoside]",slightly increases solubility,significantly stabilize,485.6,342.9,1585.5,1370.3,493.8,461.4,stable between 1 and 12 hours,–,–,–,–,–,–,–
"Oc1ccc(/C=C/c2cc(O)cc(O)c2)cc1 [Resveratrol, trans-3,5,4′-trihydroxystilbene]",slightly increases solubility,significantly stabilize,–,–,–,–,–,–,–,about 4 times,without degradation,remarkably high,12,1 to 6.5,above 24 mg/L,approximately 30 mg/L
